System: acetylcholinesterase
Experiment: acetylcholine decomposition by acetylcholinesterase in a mixed system, monitored as pH change rate
Format: biochemical
Settings: addition of limonene to the mixed system of acetylcholine and acetylcholinesterase; FIG. 3
From the text: The reaction of the above formula (1) is a chemical reaction in which acetylcholine acts as a substrate and acetylcholinesterase acts as an enzyme. In general, it is known that a chemical reaction using an enzyme is inhibited by a specific chemical substance for each enzyme, and the reaction rate is reduced or the reaction is stopped. The chemical substance is hereinafter referred to as an “inhibitor”. Here, in the mixed system of acetylcholinesterase and acetylcholine shown in FIG. 2A, when the inhibitor starts to be contained from time t, the cumulative amount of acetylcholine decomposition product after time t changes, that is, the slope of the graph decreases (see FIG. 2B). Therefore, by monitoring the decomposition rate of acetylcholine in the mixed system, it is possible to detect whether or not an inhibitor is present in the mixed system.
The target substance to be detected by the sensor according to the present embodiment is an inhibitor against the acetylcholine decomposition reaction of acetylcholinesterase. Examples of this inhibitor include limonene. […] Examples of the inhibitor other than limonene against the acetylcholine decomposition reaction of acetylcholinesterase include terpenoids such as ambrein and pinene, flavonoids such as luteolin, alkaloids such as galantamine, and glycosides such as Cynatroside A.

C=C(C)[C@H]1CC=C(C)CC1 [limonene]
effect on the pH change rate of the mixed system of acetylcholine and acetylcholinesterase (inhibitory effect on the acetylcholine decomposition reaction): reduces the pH change rate of the mixed system
